Read-outs that look alike come from different tables or passages of the source.
Legend:
B. subtilis = experiment: Sporicidal efficacy at 14 days, EN 13704; type: cell-based; conditions: 30 ppm peroxyoctanoic acid alone; spore species not specified
Experimental: The test method followed was according to European Standard EN 13704: Quantitative Suspension Test for the Evaluation of Sporicidal Activity of Chemical Disinfectants and Antiseptics Used in Food, Industrial, Domestic and Institutional Areas. Generally, a test suspension of bacterial spores in a solution of interfering substance, simulating clean conditions, was added to a prepared sample of the test formulation diluted in hard water. The mixture was maintained at the specific temperature and time desired. At this contact time, an aliquot is taken; the sporicidal action in this portion was immediately neutralized or suppressed by a validated method. The number of surviving bacterial spores in each sample was determined and the reduction in viable counts was calculated. A test was run to determine the stability and sporicidal efficacy of a composition of the present invention against spores. The composition tested included the sulfonated peroleic acid product, and an amount of peroxyoctanoic acid. The test method used was the European Standard EN 13704: Quantitative Suspension Test for the Evaluation of Sporicidal Activity of Chemical Disinfectants and Antiseptics Used in Food, Industrial, Domestic and Institutional Areas, described above.

Mycobacterium bovis BCG = type: cell-based; conditions: 300 ppm POOA, pH 6.5, room temperature
[1] = stated for comparison; cited from earlier work
[2] = Stability of sulfonated peracids in aqueous solution, half time; type: physicochemical
Experimental: A study was performed to determine the stability of various sulfonated peracids in aqueous solutions. The sulfonated peracids were compared under the same controlled conditions to determine how the structural differences of the selected peracids impacted stability. The sulfonated peracids studied included both mid-chain sulfonated and terminally sulfonated peracids.
Each peracid was tested at a concentration of 50 ppm under ambient conditions. Each individual solution was prepared from the corresponding peracid concentrate by adding it to a 0.05 M pH 5.0 citrate buffer, and adjusting the final solution pH to 5.0 with the addition of a small amount of caustic.
The peracid concentration over time was measured using a kinetic iodometric titration method. For comparison, 50 ppm peroxyacetic acid (POAA), at the same concentration and under the same conditions, was also included in the stability study. Based on the results seen in FIG. 7, the half time of each individual peracid was estimated and the results are summarized in the table below.

[3] = Coupling ability study, 1-octanoic acid by liquid chromatography; type: physicochemical; conditions: for 1-Octanoic acid (ppm) coupled: 0.4 grams 1-octanoic acid added to 20 g peracid solution in hydrogen peroxide, filtered lower phase
Experimental: A study was performed to determine the coupling/hydrotropic properties of various sulfonated peracids in aqueous solutions. The ability of the selected peracids to couple octanoic acid was measured.
Twenty grams (20 g) of each peracid solution was diluted into a beaker containing hydrogen peroxide. […] To each of these solutions, 0.4 grams of 1-octanoic acid was added. The octanoic acid initially floated to the tops of the solutions. The solutions were then stirred for 5-10 minutes with magnetic stir bars at 1,000 rpm. The solutions were then centrifuged for 20 minutes at 3,000-5,000 rpm. The lower phase of each solution was then collected. The lower phases were further clarified by filtration through 0.45 micron syringe filters. All of the filtrates appeared clear and homogenous. The filtered solutions were analyzed by liquid chromatography for 1-octaonic acid.

Contact angle study = type: physicochemical; conditions: concentrate diluted 250 times with DI water (11-SPOUA 85 times)
Experimental: A study was performed to measure the wetting properties of various sulfonated peracids in aqueous solutions, by measuring the contact angle of the individual solution on different surfaces.
A FTA32 Contact Angle Goniometer with image processing by FTA 32 software was used to measure the contact angle. The contact angle was measured on both stainless steel, and polypropylene surfaces. The peracid concentrates shown in the table below were diluted 250 times with DI water. However, the 11-SPOUA was diluted 85 times with DI water, given the lower levels of peracid precursor in the formula.
The results shown are the average of at least three contact angle measurements.

[4] = Powder storage stability at elevated temperature; type: physicochemical; conditions: about 140° F.
Experimental: The compositions of the present invention also show enhanced stability compared to conventional peroxygen containing compositions. In some embodiments, the compositions of the present invention are stable for at least about 1 year at room temperature. In some embodiments, the compositions of the present invention are stable at about 100° F. for at least 30 days. In other embodiments, the compositions of the present invention are stable at about 140° F. for at least 30 days. For example, 11-sulfoundecanoic peroxyacid (Compound D) is stable as a powder system at about 140° F. for at least 30 days.

[5] = Storage stability, loss of active oxygen by titrimetry; type: physicochemical; conditions: 4 weeks
Experimental: The stability of a sulfoperoxycarboxylic acid of the present invention, i.e., 11-sulfoundecaneperoxoic acid (Compound D), was compared to that of phthalimidoperoxyhexanoic acid (PAP). The stability data for the PAP sample were taken from U.S. Pat. No. 5,994,284, assigned to Clariant GmbH. Samples of the compound of the present invention were stored for four (4) weeks at various temperatures. The loss of active oxygen was measured by titrimetry.

[6] = pH 4
Excerpt: The issue of low solubility when using long chain peracids has been addressed by increasing the pH to above 7. […] Further, bleaching efficacy decreases proportionally with every pH unit increase over about 7.

[7] = 4 weeks, data from U.S. Pat. No. 5,994,284, cited from earlier work

SMILES: CCCCCCCC(=O)OO [POOA, peroxyoctanoic acid]
- reduction of spores (B. subtilis): did not result in a reduction
- Log Reduction (Mycobacterium bovis BCG; 2.5 min): 3.48
- Log Reduction (Mycobacterium bovis BCG; 5 min): <4.31

SMILES: CC(=O)OO [POAA, peroxyacetic acid]
- percarboxylic acid formation constant (Keq) [1]: 2.70
- half-life at 50 ppm ([2]; 50 ppm peracid, 0.05 M citrate buffer pH 5.0, ambient conditions, read-out: t1/2 (converted)): 115 h

SMILES: O=C(CS(=O)(=O)O)OO [Compound 2-SPOAA, 2-Sulfoperoxyacetic acid]
- 1-Octanoic acid (ppm) coupled [3]: 160 ppm
- Contact Angle (degree), Polypropylene (Contact angle study): 75 degree
- Contact Angle (degree), Stainless Steel (Contact angle study): 77 degree
- half-life at 50 ppm ([2]; buffer, pH 5): 37 h

SMILES: O=C(CCCCCCCCCCS(=O)(=O)O)OO [Compound D, 11-sulfoundecaneperoxoic acid]
- 1-Octanoic acid (ppm) coupled [3]: 890 ppm
- dissolution of peracid solution in hydrogen peroxide ([3]; 20 g of peracid solution diluted into hydrogen peroxide): dissolved only partially
- stable as a powder system [4]: at least 30 days
- Loss of Active Oxygen (%) ([5]; 38 ° C.): 7.9%
- Loss of Active Oxygen (%) ([5]; 50 ° C.): 15.7%
- Loss of Active Oxygen (%) ([5]; Room Temp.): 0.78%
- solubility [6]: about 1.3%
- Contact Angle (degree), Polypropylene (Contact angle study): 77 degree
- Contact Angle (degree), Stainless Steel (Contact angle study): 72 degree
- half-life at 50 ppm ([2]; buffer, pH 5): 91 h

SMILES: O=C(CCCCCS(=O)(=O)O)OO [Compound 6-SPOHXA, 6-sulfoperoxyhexanoic acid]
- 1-Octanoic acid (ppm) coupled [3]: 240 ppm
- Contact Angle (degree), Polypropylene (Contact angle study): 84 degree
- Contact Angle (degree), Stainless Steel (Contact angle study): 77 degree
- half-life at 50 ppm ([2]; buffer, pH 5): 88 h

SMILES: O=C(CCCCCN1C(=O)c2ccccc2C1=O)OO [PAP, phthalimidoperoxyhexanoic acid]
- Loss of Active Oxygen (%) ([7]; 25 ° C.): 1.4%
- Loss of Active Oxygen (%) ([7]; 40 ° C.): 2.0%
- Loss of Active Oxygen (%) ([7]; 50 ° C.): 12.0%

— patent US8871807B2, “Detergents capable of cleaning, bleaching, sanitizing and/or disinfecting textiles including sulfoperoxycarboxylic acids” (Ecolab USA Inc., priority 2008, dated 2014)
